These results are taken from US5230998A, “Method for the prescreening of drugs targeted to the V3 hypervariable loop of the HIV-1 envelope glycoprotein gp 120” (priority 1991, dated 1993).

Structures are written as SMILES.

For assay [1], the target named is T1, control peptide (518-542) (Human immunodeficiency virus type 1 BH10, UniProt P03375).
T1 construct: cut from Env gp160
Kind of assay: Attachment of ATA determined by anti-ATA antibodies (double antibody RIA). The class given is binding, HIV-1. The settings on record: FIG. 2. How it is done:
Antibodies to ATA were detected by double antibody RIA using wells coated with an ATA-ovalbumin conjugate. This conjugate was prepared in the same way as described for the ATA-BSA conjugate. Dilution endpoints of anti-ATA antibodies, determined as described by Ritchie, D. G., Nickerson, J. M., and Fuller, G. M. (1983), "Two Simple Programs for the Analysis of Data from Enzyme-linked Immunosorbent Assays (ELISA) on a Programmable Desk-top Calculator," Methods in Enzymology, 92, 577-588) of the two antisera were: 1:2,700 and 1:150,000, respectively. The second antiserum was used for subsequent RIA tests.
ATA was also added to a control peptide, (518-542), and to wells coated with gelatin only. After incubation for 4 hours at 20° C., excess ATA was removed, the wells were washed with TS and attached ATA was determined by double-antibody RIA using serial dilutions of the anti-ATA antiserum. Similar tests were carried out with serum from the same rabbit before immunization with the ATA-BSA conjugate; the corresponding results (100-450 cpm) were subtracted from cpm corresponding to RIA results obtained with the anti-ATA antiserum. For additional assays aimed at determining the binding of ATA to synthetic peptides from gp120 and gp41 of HIV-1 BH 10 and to V3 hypervariable loop peptides from 20 additional HIV-1 isolates, anti-ATA antiserum was used at a final dilution of 1:800.

Another assay has as its target peptide (331-361) (Human immunodeficiency virus type 1 BH10, UniProt P03375). The assay can be described thus: Inhibition by ATA of reaction between peptide and homologous antibodies (FIG. 1B). The class given is binding, HIV-1 BH 10. The settings on record: ATA 50 μg/ml. Here is the method: (§1) FIG. 1 comprises four bar graphs concerning the interaction of aurintricarboxylic acid (ATA) with the V3 hypervariable loop of gp120 and with distinct peptides derived from the sequence of gp160. FIG. 1A: Inhibitory effect of ATA (50 μg/ml) on the reaction of antibodies to peptides from the sequence of HIV-1 gp160 with gp120 or gp160. gp120-coated wells were used for antisera to peptides from gp120 and gp160-coated wells were used with antisera to peptides from gp41. FIG. 1B: Inhibitory effect of ATA (50 μg/ml) on the reaction between antibodies to peptides from gp120/gp41 and homologous peptides. FIG. 1C: binding of ATA to wells coated with distinct peptides from the sequence of gp160, as determined by subsequent binding of anti-ATA antibodies. FIG. ID: Net electric charge of peptides from the sequence of gp160, determined by subtracting the number of aspartic (D) and glutamic (E) residues from the sum of lysine (K) and arginine (R) residues present in distinct segments of the gp160 sequence. The horizontal dotted line indicates the boundary between non-significant and significant inhibition, established from three times repeated experiments.
(§2) Wells of 96 well polystyrene plates (Immulon 2, Dynatech Laboratories, Inc., Chantilly, Va.) were coated with synthetic peptides (200 μl; 20μg/ml in 0.1 M Tris-HCl, pH 8.8) overnight at 20° C. The peptides were from the sequence of HIV-1, clone BH 10 envelope glycoproteins gp120 and gp41 (Neurath, A. R., Strick, N., and Lee, E. Y. S. (1990), "B-cell Epitope Mapping of Human Immunodeficiency virus (HIV-1) Envelope Glycoprotein with Long (19 to 36-residue) Synthetic Peptides", J. Gen. Virol., 71., 85-95) and from V3 hypervariable loops of 21 distinct HIV-1 isolates (clones) Neurath, A. R., and Strick, N., (1990), "Confronting the Hypervariability of an Immunodominant Epitope Eliciting Virus Neutralizing Antibodies from the Envelope Glycoprotein of the Human Immunodeficiency Virus Type 1 (HIV-1)", Molec. Immunol., 27, 539-549. The latter peptides corresponded to full-length V3 loops generated by disulfide bonds between N- and C- terminal cysteine residues. After washing with 0.14 M NaCl, 0.01 M Tris, 0.02% NaN3 (TS), the wells were postcoated with a mixture of bovine serum albumin (BSA) and gelatine (10 and 2.5 mg/ml, respectively) in TS. […]
(§3) To define sites on gp120/gp41 reacting with ATA, the inhibitory effect of this compound was studied by RIA tests using gp120- and gp160-coated wells, respectively, and antisera (final dilutions 1:150) against synthetic peptides from the entire sequence of gp120/gp41 of HIV-1 BH 10. […] Attached rabbit IgG was detected using ^125 I-labeled anti-rabbit IgG, as described before (Neurath et al., 1990, J. Gen. Virol., 71, 85-95). […]

The target in assay [2] is T2, V3 hypervariable loop peptide (303-338) (Human immunodeficiency virus type 1 BH10, UniProt P03375).
T2 construct: cut from Env gp160
T2 sequence (P03375 296-331): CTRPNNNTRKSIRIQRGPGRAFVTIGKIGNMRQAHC
Described as above. The class given is binding, HIV-1 BH 10. The settings on record: ATA 50 μg/ml. Here is the method: as §1, §2, §3

The next assay deals with peptide (492-518) (Human immunodeficiency virus type 1 BH10, UniProt P03375). Described as above. The class given is binding, HIV-1 BH 10. Particulars: ATA 50 μg/ml. Here is the method: as §1, §2, §3
Sequence of peptide (492-518) (P03375 492-518): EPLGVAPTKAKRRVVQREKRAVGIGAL
In assay [3] the target is peptide (845-862) from gp41 (Human immunodeficiency virus type 1 BH10, UniProt P03375). The description is as above. The class given is binding, HIV-1 BH 10. The settings on record: ATA 50 μg/ml. How it is done: as §1, §2, §3
Sequence of peptide (845-862) from gp41 (P03375 512-856): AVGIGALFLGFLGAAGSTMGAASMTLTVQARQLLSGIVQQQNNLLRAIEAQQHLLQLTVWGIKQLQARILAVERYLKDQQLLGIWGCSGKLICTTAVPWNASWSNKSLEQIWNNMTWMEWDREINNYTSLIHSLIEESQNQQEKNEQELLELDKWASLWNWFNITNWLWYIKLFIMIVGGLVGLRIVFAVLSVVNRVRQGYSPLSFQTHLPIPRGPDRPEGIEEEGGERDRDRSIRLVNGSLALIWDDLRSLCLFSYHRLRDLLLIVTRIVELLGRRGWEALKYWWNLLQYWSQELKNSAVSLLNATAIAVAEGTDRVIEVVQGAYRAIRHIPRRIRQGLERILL
The test system of assay [4] is gp120 expressed on the surface of HIV-1-infected cells. The settings on record: literature; cited from earlier work.

T1 sequence (P03375 518-542): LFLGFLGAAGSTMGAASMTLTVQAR
Sequence of peptide (331-361) (P03375 324-354): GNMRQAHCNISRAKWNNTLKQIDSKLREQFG

For `O=C(O)C1=CC(=C(c2ccc(O)c(C(=O)O)c2)c2ccc(O)c(C(=O)O)c2)C=CC1=O` [substance #122, aurintricarboxylic acid], in assay [1], the “binding of ATA to control peptide (anti-ATA antibodies)” value is recorded as “not with gelatin or a control peptide (518-542)”. The “inhibition of reaction of peptide with homologous antibodies” value was “Inhibition was also observed” against peptide (331-361); “most dramatically inhibited” in assay [2]; “did not inhibit the reaction between this peptide and homologous anti-peptide antibodies” at peptide (492-518); “Inhibition was also observed” in assay [3]. Further, in assay [4], the “inhibition of the reaction of gp120 on infected cells with monoclonal anti-gp120 antibodies” value is on record as “inhibit the reaction of gp120 expressed on the surface of HIV-1-infected cells with monoclonal anti-gp120 antibodies”.
